# In patent US6670446B1, “N1 modified glycopeptides” (Eli Lilly and Company, priority 1998, dated 2003):
# Experiments:
# Format in all cases: cell-based
# [1] = tested on: Staphylococcus aureus SA1199; assay: MIC, standard broth micro-dilution assay, SA 1199
# Procedure: (§1) The antibacterial efficacy of the present compounds is illustrated by Table III. The minimal inhibitory concentrations (MICs) were determined using a standard broth micro-dilution assay.
# [2] = tested on: Resistant Enterococcus faecium and faecalis; assay: MIC, standard broth micro-dilution assay, Resistant; settings: geometric mean of 4-6 isolates
# Procedure: as §1
# [3] = tested on: Enterococcus faecalis 2041; assay: MIC, standard broth micro-dilution assay, EF 2041
# Procedure: as §1
# [4] = tested on: Staphylococcus aureus 447; assay: MIC, standard broth micro-dilution assay, SA 447
# Procedure: as §1
# [5] = tested on: Enterococcus gallinarum 245; assay: MIC, standard broth micro-dilution assay, EG 245
# Procedure: as §1
# [6] = tested on: Staphylococcus aureus S13E
# Procedure: as §1
# [7] = tested on: Staphylococcus aureus 446; assay: MIC, standard broth micro-dilution assay, SA 446
# Procedure: as §1
# [8] = tested on: Escherichia coli EC14; assay: MIC, standard broth micro-dilution assay, EC 14
# Procedure: as §1
# [9] = tested on: Staphylococcus aureus 491; assay: MIC, standard broth micro-dilution assay, SA 491
# Procedure: as §1
# [10] = tested on: Staphylococcus aureus SA1199A; assay: MIC, standard broth micro-dilution assay, SA 1199A
# Procedure: as §1
# [11] = tested on: Staphylococcus aureus X778; assay: MIC, standard broth micro-dilution assay, SA X778
# Procedure: as §1
# [12] = tested on: Enterococcus faecium 180; assay: MIC, standard broth micro-dilution assay, EF 180
# Procedure: as §1
# [13] = tested on: Staphylococcus epidermidis 270; assay: MIC, standard broth micro-dilution assay, SE 270
# Procedure: as §1
# [14] = tested on: Sensitive Enterococcus faecium and faecalis; assay: MIC, standard broth micro-dilution assay, Sensitive; settings: geometric mean of 4-6 isolates
# Procedure: as §1
# [15] = tested on: Enterococcus faecium 180-1; assay: MIC, standard broth micro-dilution assay, EF 180-1
# Procedure: as §1
# [16] = tested on: Haemophilus influenzae RD; assay: MIC, standard broth micro-dilution assay, HFRD
# Procedure: as §1
# [17] = tested on: Staphylococcus haemolyticus 415; assay: MIC, standard broth micro-dilution assay, SH 415
# Procedure: as §1
# [18] = tested on: Staphylococcus aureus X400; assay: MIC, standard broth micro-dilution assay, SA X400
# Procedure: as §1
# [19] = tested on: Staphylococcus aureus 489; assay: MIC, standard broth micro-dilution assay, SA 489
# Procedure: as §1
# [20] = tested on: Enterococcus faecalis 276; assay: MIC, standard broth micro-dilution assay, EF 276
# Procedure: as §1
# [21] = tested on: Staphylococcus haemolyticus 105; assay: MIC, standard broth micro-dilution assay, SH 105
# Procedure: as §1
SMILES,"minimal inhibitory concentration (MIC), SA 1199 [1]","minimal inhibitory concentration (MIC), Resistant [2]","minimal inhibitory concentration (MIC), EF 2041 [3]","minimal inhibitory concentration (MIC), SA 447 [4]","minimal inhibitory concentration (MIC), EG 245 [5]","minimal inhibitory concentration (MIC), SA S13E [6]","minimal inhibitory concentration (MIC), SA 446 [7]","minimal inhibitory concentration (MIC), EC 14 [8]","minimal inhibitory concentration (MIC), SA 491 [9]","minimal inhibitory concentration (MIC), SA 1199A [10]","minimal inhibitory concentration (MIC), SA X778 [11]","minimal inhibitory concentration (MIC), EF 180 [12]","minimal inhibitory concentration (MIC), SE 270 [13]","minimal inhibitory concentration (MIC), Sensitive [14]","minimal inhibitory concentration (MIC), EF 180-1 [15]","minimal inhibitory concentration (MIC), HFRD [16]","minimal inhibitory concentration (MIC), SH 415 [17]","minimal inhibitory concentration (MIC), SA X400 [18]","minimal inhibitory concentration (MIC), SA 489 [19]","minimal inhibitory concentration (MIC), EF 276 [20]",further results
"CC(C)CC(NC(=O)OC(C)(C)C)C(=O)NC1C(=O)NC(CC(N)=O)C(=O)NC2C(=O)NC3C(=O)NC(C(=O)NC(C(=O)O)c4cc(O)cc(O)c4-c4cc3ccc4O)C(OC3CC(C)(N)C(O)C(C)O3)c3ccc(c(Cl)c3)Oc3cc2cc(c3OC2OC(CO)C(O)C(O)C2O)Oc2ccc(cc2Cl)C1O [Example 36, N^1-(N-BOC-D-leucine) derivative of desepivancosaminyl desleucylA82846B]",4,>128,8,16,16,4,8,>64,2,4,4,>64,16,16,4,>64,>64,4,4,4,"minimal inhibitory concentration (MIC), SH 105 [21]: 2"
"CC(C)CC(N)C(=O)NC1C(=O)NC(CC(N)=O)C(=O)NC2C(=O)NC3C(=O)NC(C(=O)NC(C(=O)O)c4cc(O)cc(O)c4-c4cc3ccc4O)C(OC3CC(C)(N)C(O)C(C)O3)c3ccc(c(Cl)c3)Oc3cc2cc(c3OC2OC(CO)C(O)C(O)C2O)Oc2ccc(cc2Cl)C1O [Example 37, N^1-D-leucine derivative of desepivancosaminyl-desleucylA82846B]",0.5,>32,0.5,1,0.5,0.25,0.5,>64,0.5,0.125,0.25,>64,0.5,0.87,0.25,64,4,0.25,0.25,0.25,"minimal inhibitory concentration (MIC), SH 105 [21]: 0.25"
"CCCCCCNC(CC(C)C)C(=O)NC1C(=O)NC(CC(N)=O)C(=O)NC2C(=O)NC3C(=O)NC(C(=O)NC(C(=O)O)c4cc(O)cc(O)c4-c4cc3ccc4O)C(OC3CC(C)(N)C(O)C(C)O3)c3ccc(c(Cl)c3)Oc3cc2cc(c3OC2OC(CO)C(O)C(O)C2OC2CC(C)(NCCCCCC)C(O)C(C)O2)Oc2ccc(cc2Cl)C1O [Example 38, N^1-(N-n-hexyl-D-leucine) derivative of N^DISACC-n-hexyl desleucylA82846B]",1,6.7,≦.06,1,0.5,0.5,1,>64,≦.06,≦.06,0.5,2,1,0.19,no growth,no,1,1,0.25,0.25,"minimal inhibitory concentration (MIC), SH 105 [21]: 1"
"CCCCCCNC(CC(C)C)C(=O)NC1C(=O)NC(CC(N)=O)C(=O)NC2C(=O)NC3C(=O)NC(C(=O)NC(C(=O)O)c4cc(O)cc(O)c4-c4cc3ccc4O)C(OC3CC(C)(N)C(O)C(C)O3)c3ccc(c(Cl)c3)Oc3cc2cc(c3OC2OC(CO)C(O)C(O)C2OC2CC(C)(N)C(O)C(C)O2)Oc2ccc(cc2Cl)C1O [Example 39, N^1-(N-n-hexyl-D-leucine) derivative of desleucylA82846B]",0.125,45,≦.06,0.5,0.5,0.125,≦.06,>64,≦.06,≦.06,≦.06,2,0.25,0.38,no growth,no,2,≦.06,≦.06,≦.06,"minimal inhibitory concentration (MIC), SH 105 [21]: 0.5"
"CC1OC(OC2c3ccc(c(Cl)c3)Oc3cc4cc(c3OC3OC(CO)C(O)C(O)C3OC3CC(C)(N)C(O)C(C)O3)Oc3ccc(cc3Cl)C(O)C(NC(=O)C(Cc3ccccc3)N(C)C(=O)OC(C)(C)C)C(=O)NC(CC(N)=O)C(=O)NC4C(=O)NC3C(=O)NC2C(=O)NC(C(=O)O)c2cc(O)cc(O)c2-c2cc3ccc2O)CC(C)(N)C1O [Example 40, N^1-(N-BOC-N-methyl-D-phenylalanine) derivative of desleucylA82846B]",4,>128,2,8,16,4,4,>64,2,2,4,>64,4,9.2,4,>64,64,4,4,1,"minimal inhibitory concentration (MIC), SH 105 [21]: 4"
